Experimental data reported in ChEMBL document CHEMBL1201862, “PubChem BioAssay data set” (2004).
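In this assay, cells in 96-well plates receive the compound at five concentrations for 48 hours. Endpoints are linearly interpolated between the surrounding concentrations. The concentration for 50% growth inhibition is given as GI50.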 Calls of active or inactive are those of the source. No stated cut-off is given here; in the data, active = GI50 up to about 1.1 µM and inactive = higher.

How the values were obtained:
Assay in all cases: DTP human tumour cell line panel, 48 h
MOLT-4 = tested on: MOLT-4
SW-620 = tested on: SW-620
RPMI-8226 = tested on: RPMI-8226
SK-OV-3 = tested on: SK-OV-3
MCF7 = tested on: MCF7
UO-31 = tested on: UO-31
SNB-19 = tested on: SNB-19
SR = tested on: SR
OVCAR-5 = tested on: OVCAR-5
PC-3 = tested on: PC-3
SF-539 = tested on: SF-539
EKVX = tested on: EKVX
IGROV-1 = tested on: IGROV-1
UACC-257 = tested on: UACC-257
OVCAR-4 = tested on: OVCAR-4
MDA-N = tested on: MDA-N
HCT-116 = tested on: HCT-116
HOP-62 = tested on: HOP-62
SF-295 = tested on: SF-295
SK-MEL-28 = tested on: SK-MEL-28
RXF 393 = tested on: RXF 393
T47D = tested on: T47D
K562 = tested on: K562
HT-29 = tested on: HT-29
NCI/ADR-RES = tested on: NCI/ADR-RES
NCI-H522 = tested on: NCI-H522
HOP-92 = tested on: HOP-92
SK-MEL-5 = tested on: SK-MEL-5
BT-549 = tested on: BT-549
Hs-578T = tested on: Hs-578T
MDA-MB-231 = tested on: MDA-MB-231
SNB-75 = tested on: SNB-75
M14 = tested on: M14
ACHN = tested on: ACHN
MDA-MB-435 = tested on: MDA-MB-435
TK-10 = tested on: TK-10
OVCAR-8 = tested on: OVCAR-8
SK-MEL-2 = tested on: SK-MEL-2
OVCAR-3 = tested on: OVCAR-3
SN12C = tested on: SN12C
KM12 = tested on: KM12
NCI-H23 = tested on: NCI-H23
U-251 = tested on: U-251
CAKI-1 = tested on: CAKI-1
A498 = tested on: A498
COLO 205 = tested on: COLO 205
HCC 2998 = tested on: HCC 2998
UACC-62 = tested on: UACC-62
A549 = tested on: A549
NCI-H226 = tested on: NCI-H226
NCI-H460 = tested on: NCI-H460
DU-145 = tested on: DU-145
HCT-15 = tested on: HCT-15
786-0 = tested on: 786-0
SF-268 = tested on: SF-268
HL-60 = tested on: HL-60
LOX IMVI = tested on: LOX IMVI
CCRF-CEM = tested on: CCRF-CEM
Malme-3M = tested on: Malme-3M

Question: COc1c(Cl)c(=O)oc2ccc(Cl)cc12 was tested. Which GI50 (MOLT-4) did it give?
Answer: > 100 µM (inactive)

Question: What about the GI50 (SW-620) of the same molecule?
Answer: > 100 µM (inactive)

Question: And the GI50 (RPMI-8226)?
Answer: > 100 µM (inactive)

Question: What about the GI50 (SK-OV-3) of the same molecule?
Answer: > 100 µM (inactive)

Question: What about the GI50 (MCF7) of the same molecule?
Answer: > 100 µM (inactive)

Question: What about the GI50 (UO-31) of the same molecule?
Answer: > 100 µM (inactive)

Question: And the GI50 (SNB-19)?
Answer: > 100 µM (inactive)

Question: And the GI50 (SR)?
Answer: > 100 µM (inactive)

Question: And the GI50 (OVCAR-5)?
Answer: > 100 µM (inactive)

Question: What about the GI50 (PC-3) of the same molecule?
Answer: > 100 µM (inactive)

Question: What about the GI50 (SF-539) of the same molecule?
Answer: > 100 µM (inactive)

Question: What about the GI50 (EKVX) of the same molecule?
Answer: 81.7 µM (inactive)

Question: What about the GI50 (IGROV-1) of the same molecule?
Answer: > 100 µM (inactive)

Question: And the GI50 (UACC-257)?
Answer: > 100 µM (inactive)

Question: What about the GI50 (OVCAR-4) of the same molecule?
Answer: > 100 µM (inactive)

Question: What about the GI50 (MDA-N) of the same molecule?
Answer: > 100 µM (inactive)

Question: And the GI50 (HCT-116)?
Answer: > 100 µM (inactive)

Question: What about the GI50 (HOP-62) of the same molecule?
Answer: > 100 µM (inactive)

Question: And the GI50 (SF-295)?
Answer: 53.2 µM (inactive)

Question: What about the GI50 (SK-MEL-28) of the same molecule?
Answer: > 100 µM (inactive)

Question: What about the GI50 (RXF 393) of the same molecule?
Answer: > 100 µM (inactive)

Question: What about the GI50 (T47D) of the same molecule?
Answer: > 100 µM (inactive)

Question: And the GI50 (K562)?
Answer: > 100 µM (inactive)

Question: What about the GI50 (HT-29) of the same molecule?
Answer: > 100 µM (inactive)

Question: And the GI50 (NCI/ADR-RES)?
Answer: > 100 µM (inactive)

Question: What about the GI50 (NCI-H522) of the same molecule?
Answer: > 100 µM (inactive)

Question: And the GI50 (HOP-92)?
Answer: 25.2 µM (inactive)

Question: And the GI50 (SK-MEL-5)?
Answer: > 100 µM (inactive)

Question: And the GI50 (BT-549)?
Answer: > 100 µM (inactive)

Question: And the GI50 (Hs-578T)?
Answer: > 100 µM (inactive)

Question: What about the GI50 (MDA-MB-231) of the same molecule?
Answer: > 100 µM (inactive)

Question: And the GI50 (SNB-75)?
Answer: 39.9 µM (inactive)

Question: And the GI50 (M14)?
Answer: > 100 µM (inactive)

Question: What about the GI50 (ACHN) of the same molecule?
Answer: > 100 µM (inactive)

Question: What about the GI50 (MDA-MB-435) of the same molecule?
Answer: > 100 µM (inactive)

Question: And the GI50 (TK-10)?
Answer: > 100 µM (inactive)

Question: What about the GI50 (OVCAR-8) of the same molecule?
Answer: > 100 µM (inactive)

Question: And the GI50 (SK-MEL-2)?
Answer: > 100 µM (inactive)

Question: What about the GI50 (OVCAR-3) of the same molecule?
Answer: > 100 µM (inactive)

Question: And the GI50 (SN12C)?
Answer: > 100 µM (inactive)

Question: What about the GI50 (KM12) of the same molecule?
Answer: > 100 µM (inactive)

Question: And the GI50 (NCI-H23)?
Answer: > 100 µM (inactive)

Question: What about the GI50 (U-251) of the same molecule?
Answer: 60.7 µM (inactive)

Question: What about the GI50 (CAKI-1) of the same molecule?
Answer: > 100 µM (inactive)

Question: And the GI50 (A498)?
Answer: > 100 µM (inactive)

Question: And the GI50 (COLO 205)?
Answer: > 100 µM (inactive)

Question: What about the GI50 (HCC 2998) of the same molecule?
Answer: > 100 µM (inactive)

Question: What about the GI50 (UACC-62) of the same molecule?
Answer: > 100 µM (inactive)

Question: And the GI50 (A549)?
Answer: > 100 µM (inactive)

Question: What about the GI50 (NCI-H226) of the same molecule?
Answer: > 100 µM (inactive)

Question: And the GI50 (NCI-H460)?
Answer: > 100 µM (inactive)

Question: What about the GI50 (DU-145) of the same molecule?
Answer: > 100 µM (inactive)

Question: And the GI50 (HCT-15)?
Answer: > 100 µM

Question: What about the GI50 (786-0) of the same molecule?
Answer: > 100 µM (inactive)

Question: What about the GI50 (SF-268) of the same molecule?
Answer: > 100 µM (inactive)

Question: And the GI50 (HL-60)?
Answer: > 100 µM (inactive)

Question: And the GI50 (LOX IMVI)?
Answer: > 100 µM (inactive)

Question: What about the GI50 (CCRF-CEM) of the same molecule?
Answer: > 100 µM (inactive)

Question: What about the GI50 (Malme-3M) of the same molecule?
Answer: > 100 µM (inactive)

Question: What does the source list for Cc1cc(=O)oc2cc(O)ccc12 [HYMECROMONE]?
Answer: GI50 (MOLT-4): > 100 µM (inactive); GI50 (SW-620): > 100 µM (inactive); GI50 (RPMI-8226): > 100 µM (inactive); GI50 (SK-OV-3): > 100 µM (inactive); GI50 (MCF7): > 100 µM (inactive); GI50 (UO-31): > 100 µM (inactive); GI50 (SNB-19): > 100 µM (inactive); GI50 (SR): 69 µM (inactive); GI50 (OVCAR-5): > 100 µM (inactive); GI50 (PC-3): > 100 µM (inactive); GI50 (SF-539): > 100 µM (inactive); GI50 (EKVX): > 100 µM (inactive); GI50 (IGROV-1): > 100 µM (inactive); GI50 (UACC-257): > 100 µM (inactive); GI50 (OVCAR-4): > 100 µM (inactive); GI50 (MDA-N): > 100 µM (inactive); GI50 (HCT-116): > 100 µM (inactive); GI50 (HOP-62): > 100 µM (inactive); GI50 (SF-295): > 100 µM (inactive); GI50 (SK-MEL-28): > 100 µM (inactive); GI50 (RXF 393): > 100 µM (inactive); GI50 (T47D): > 100 µM (inactive); GI50 (K562): > 100 µM (inactive); GI50 (HT-29): > 100 µM (inactive); GI50 (NCI/ADR-RES): > 100 µM (inactive); GI50 (NCI-H522): > 100 µM (inactive); GI50 (HOP-92): 79.8 µM (inactive); GI50 (SK-MEL-5): > 100 µM (inactive); GI50 (BT-549): 88.3 µM (inactive); GI50 (Hs-578T): > 100 µM (inactive); GI50 (MDA-MB-231): > 100 µM (inactive); GI50 (SNB-75): 39.1 µM (inactive); GI50 (ACHN): > 100 µM (inactive); GI50 (MDA-MB-435): > 100 µM (inactive); GI50 (TK-10): > 100 µM (inactive); GI50 (OVCAR-8): > 100 µM (inactive); GI50 (SK-MEL-2): > 100 µM (inactive); GI50 (OVCAR-3): > 100 µM (inactive); GI50 (SN12C): > 100 µM (inactive); GI50 (KM12): > 100 µM (inactive); GI50 (NCI-H23): > 100 µM (inactive); GI50 (U-251): > 100 µM (inactive); GI50 (CAKI-1): > 100 µM (inactive); GI50 (A498): 65.8 µM (inactive); GI50 (COLO 205): > 100 µM (inactive); GI50 (HCC 2998): > 100 µM (inactive); GI50 (UACC-62): > 100 µM (inactive); GI50 (A549): > 100 µM (inactive); GI50 (NCI-H226): > 100 µM (inactive); GI50 (NCI-H460): > 100 µM (inactive); GI50 (DU-145): > 100 µM (inactive); GI50 (HCT-15): > 100 µM; GI50 (786-0): > 100 µM (inactive); GI50 (SF-268): > 100 µM (inactive); GI50 (HL-60): > 100 µM (inactive); GI50 (LOX IMVI): > 100 µM (inactive); GI50 (CCRF-CEM): > 100 µM (inactive); GI50 (Malme-3M): > 100 µM (inactive)
